pIC50: −log10 of the molar value.
System: K-562 leukemia growth, % test/control
Assay: Anticancer human tumor K-562 cell line growth inhibition;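 as to viability, T/C: 100% = DMSO vehicle wells and lower values mean fewer viable cells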
Settings: spheroids with HUVEC and MSC; for pIC50: curve of first compound; for viability, T/C: stronger effect = lower value
How it was run: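 Complex spheroids of tumor cells with HUVEC and human MSCs, exposed to iadademstat combined with other agents. Each agent tested in half-log steps from near clinical Cmax (else 10 microM top), DMSO ≤0.25%.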

[1] = second compound 0.1 µM, first compound 0.0316 µM
[2] = second compound 0.1 µM, first compound 0.1 µM
[3] = second compound 0.316 µM, first compound 0.0316 µM
[4] = second compound 0.316 µM, first compound 0.1 µM
[5] = second compound 1 µM, first compound 0.0316 µM
[6] = second compound 1 µM, first compound 0.1 µM
[7] = second compound 3.16 µM, first compound 0.0316 µM
[8] = second compound 3.16 µM, first compound 0.1 µM
[9] = second compound 10 µM, first compound 0.0316 µM
[10] = second compound 10 µM, first compound 0.1 µM

COc1ccc([C@@H](O)c2cc(-c3ncnc4cc(N5CCOCC5)ccc34)c(F)cc2Cl)nn1 + NC1CC1c1ccc(-c2cccc(O)c2)cc1
pIC50 (second compound 0.1 µM): 5.10 | pIC50 (second compound 0.316 µM): 5.12 | pIC50 (second compound 1 µM): 5.19 | pIC50 (second compound 3.16 µM): 5.32 | pIC50 (second compound 10 µM): 5.94 | viability, T/C [1]: 111% | viability, T/C [2]: 107% | viability, T/C (second compound 0.1 µM, first compound 0.316 µM): 106% | viability, T/C (second compound 0.1 µM, first compound 1 µM): 106% | viability, T/C (second compound 0.1 µM, first compound 3.16 µM): 93.1% | viability, T/C (second compound 0.1 µM, first compound 10 µM): 38.8% | viability, T/C [3]: 104% | viability, T/C [4]: 107% | viability, T/C (second compound 0.316 µM, first compound 0.316 µM): 101% | viability, T/C (second compound 0.316 µM, first compound 1 µM): 98.6% | viability, T/C (second compound 0.316 µM, first compound 3.16 µM): 85.4% | viability, T/C (second compound 0.316 µM, first compound 10 µM): 38.2% | viability, T/C [5]: 99.1% | viability, T/C [6]: 98.8% | viability, T/C (second compound 1 µM, first compound 0.316 µM): 99.5% | viability, T/C (second compound 1 µM, first compound 1 µM): 98.3% | viability, T/C (second compound 1 µM, first compound 3.16 µM): 77% | viability, T/C (second compound 1 µM, first compound 10 µM): 33.8% | viability, T/C [7]: 103% | viability, T/C [8]: 99.6% | viability, T/C (second compound 3.16 µM, first compound 0.316 µM): 94.2% | viability, T/C (second compound 3.16 µM, first compound 1 µM): 83.5% | viability, T/C (second compound 3.16 µM, first compound 3.16 µM): 59.7% | viability, T/C (second compound 3.16 µM, first compound 10 µM): 32.7% | viability, T/C [9]: 96.6% | viability, T/C [10]: 96.9% | viability, T/C (second compound 10 µM, first compound 0.316 µM): 66.7% | viability, T/C (second compound 10 µM, first compound 1 µM): 52.9% | viability, T/C (second compound 10 µM, first compound 3.16 µM): 38.9% | viability, T/C (second compound 10 µM, first compound 10 µM): 24.6%

Nc1ccn(C2OC(CO)C(O)C2(F)F)c(=O)n1 (stereo not given) + NC1CCC(NC2CC2c2ccccc2)CC1
pIC50 (second compound 0.1 µM): > 9.02 | pIC50 (second compound 0.316 µM): > 9.02 | pIC50 (second compound 1 µM): > 9.02 | pIC50 (second compound 3.16 µM): > 9.02 | pIC50 (second compound 10 µM): > 9.02 | viability, T/C (second compound 0.1 µM, first compound 0.000949 µM): 24% | viability, T/C (second compound 0.1 µM, first compound 0.003 µM): 6.98% | viability, T/C (second compound 0.1 µM, first compound 0.00949 µM): 5.69% | viability, T/C (second compound 0.1 µM, first compound 0.03 µM): 5.94% | viability, T/C (second compound 0.1 µM, first compound 0.0949 µM): 6.11% | viability, T/C (second compound 0.1 µM, first compound 0.3 µM): 5.96% | viability, T/C (second compound 0.316 µM, first compound 0.000949 µM): 25.4% | viability, T/C (second compound 0.316 µM, first compound 0.003 µM): 7.37% | viability, T/C (second compound 0.316 µM, first compound 0.00949 µM): 5.62% | viability, T/C (second compound 0.316 µM, first compound 0.03 µM): 5.72% | viability, T/C (second compound 0.316 µM, first compound 0.0949 µM): 7.48% | viability, T/C (second compound 0.316 µM, first compound 0.3 µM): 6.94% | viability, T/C (second compound 1 µM, first compound 0.000949 µM): 27.7% | viability, T/C (second compound 1 µM, first compound 0.003 µM): 6.4% | viability, T/C (second compound 1 µM, first compound 0.00949 µM): 5.72% | viability, T/C (second compound 1 µM, first compound 0.03 µM): 6.07% | viability, T/C (second compound 1 µM, first compound 0.0949 µM): 6% | viability, T/C (second compound 1 µM, first compound 0.3 µM): 6% | viability, T/C (second compound 3.16 µM, first compound 0.000949 µM): 20.3% | viability, T/C (second compound 3.16 µM, first compound 0.003 µM): 6.36% | viability, T/C (second compound 3.16 µM, first compound 0.00949 µM): 6.71% | viability, T/C (second compound 3.16 µM, first compound 0.03 µM): 5.11% | viability, T/C (second compound 3.16 µM, first compound 0.0949 µM): 5.57% | viability, T/C (second compound 3.16 µM, first compound 0.3 µM): 5.77% | viability, T/C (second compound 10 µM, first compound 0.000949 µM): 12.7% | viability, T/C (second compound 10 µM, first compound 0.003 µM): 5.54% | viability, T/C (second compound 10 µM, first compound 0.00949 µM): 5.5% | viability, T/C (second compound 10 µM, first compound 0.03 µM): 4.88% | viability, T/C (second compound 10 µM, first compound 0.0949 µM): 5.09% | viability, T/C (second compound 10 µM, first compound 0.3 µM): 5.72%

CC(C)CC(NC(=O)C(Cc1ccccc1)NC(=O)c1cnccn1)B(O)O (stereo not given) + NC1CCC(NC2CC2c2ccccc2)CC1
pIC50 (second compound 0.1 µM): 8.72 | pIC50 (second compound 0.316 µM): 8.71 | pIC50 (second compound 1 µM): 8.71 | pIC50 (second compound 3.16 µM): 8.75 | pIC50 (second compound 10 µM): 9.01 | viability, T/C (second compound 0.1 µM, first compound 0.000316 µM): 99% | viability, T/C (second compound 0.1 µM, first compound 0.001 µM): 101% | viability, T/C (second compound 0.1 µM, first compound 0.00316 µM): 10.2% | viability, T/C (second compound 0.1 µM, first compound 0.01 µM): 2.14% | viability, T/C [1]: 1.84% | viability, T/C [2]: 0.67% | viability, T/C (second compound 0.316 µM, first compound 0.000316 µM): 99.3% | viability, T/C (second compound 0.316 µM, first compound 0.001 µM): 102% | viability, T/C (second compound 0.316 µM, first compound 0.00316 µM): 12.7% | viability, T/C (second compound 0.316 µM, first compound 0.01 µM): 2.31% | viability, T/C [3]: 0.86% | viability, T/C [4]: 2.09% | viability, T/C (second compound 1 µM, first compound 0.000316 µM): 104% | viability, T/C (second compound 1 µM, first compound 0.001 µM): 101% | viability, T/C (second compound 1 µM, first compound 0.00316 µM): 13.5% | viability, T/C (second compound 1 µM, first compound 0.01 µM): 1.19% | viability, T/C [5]: 1.68% | viability, T/C [6]: 1.1% | viability, T/C (second compound 3.16 µM, first compound 0.000316 µM): 105% | viability, T/C (second compound 3.16 µM, first compound 0.001 µM): 87.8% | viability, T/C (second compound 3.16 µM, first compound 0.00316 µM): 11.7% | viability, T/C (second compound 3.16 µM, first compound 0.01 µM): 1.18% | viability, T/C [7]: 2.66% | viability, T/C [8]: 0.99% | viability, T/C (second compound 10 µM, first compound 0.000316 µM): 97.1% | viability, T/C (second compound 10 µM, first compound 0.001 µM): 49% | viability, T/C (second compound 10 µM, first compound 0.00316 µM): 9.37% | viability, T/C (second compound 10 µM, first compound 0.01 µM): 1.01% | viability, T/C [9]: 0.67% | viability, T/C [10]: 1.77%
